The text below walks through data of BindingDB's records for doi:10.1124/mol.57.3.642 (National Institute On Drug Abuse, 2000).

Counter-ions that a name gives are not always drawn.

In test [1] the target is Nicotinic acetylcholine receptor (Rattus leucopus, UniProt Q62594).
For test [2], the target named is Neuronal acetylcholine receptor subunit alpha-4 (Rattus norvegicus, UniProt P09483).
For test [3], the target named is Neuronal acetylcholine receptor subunit alpha-9 (Rattus norvegicus, UniProt P43144).
For test [4], the target named is Neuronal acetylcholine receptor subunit alpha-7 (Rattus norvegicus, UniProt Q05941).
The target of test [5] is Neuronal acetylcholine receptor subunit alpha-3 (Rattus norvegicus, UniProt P04757).
Sequence of Neuronal acetylcholine receptor subunit alpha-3 (P04757 whole entry): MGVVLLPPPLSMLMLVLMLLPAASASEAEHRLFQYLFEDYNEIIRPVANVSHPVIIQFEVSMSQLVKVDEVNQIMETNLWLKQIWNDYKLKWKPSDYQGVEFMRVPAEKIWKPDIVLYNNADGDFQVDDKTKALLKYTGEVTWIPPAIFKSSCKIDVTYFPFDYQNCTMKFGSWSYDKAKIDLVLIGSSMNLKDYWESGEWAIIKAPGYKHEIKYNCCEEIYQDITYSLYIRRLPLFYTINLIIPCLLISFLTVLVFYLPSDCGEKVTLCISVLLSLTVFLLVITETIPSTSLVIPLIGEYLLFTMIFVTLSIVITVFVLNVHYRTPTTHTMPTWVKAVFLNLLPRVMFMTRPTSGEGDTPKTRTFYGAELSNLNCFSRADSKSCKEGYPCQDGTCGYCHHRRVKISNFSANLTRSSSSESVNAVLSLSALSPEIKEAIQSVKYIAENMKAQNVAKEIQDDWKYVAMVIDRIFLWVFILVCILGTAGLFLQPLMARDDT

Sequence of Neuronal acetylcholine receptor subunit alpha-7 (Q05941 whole entry): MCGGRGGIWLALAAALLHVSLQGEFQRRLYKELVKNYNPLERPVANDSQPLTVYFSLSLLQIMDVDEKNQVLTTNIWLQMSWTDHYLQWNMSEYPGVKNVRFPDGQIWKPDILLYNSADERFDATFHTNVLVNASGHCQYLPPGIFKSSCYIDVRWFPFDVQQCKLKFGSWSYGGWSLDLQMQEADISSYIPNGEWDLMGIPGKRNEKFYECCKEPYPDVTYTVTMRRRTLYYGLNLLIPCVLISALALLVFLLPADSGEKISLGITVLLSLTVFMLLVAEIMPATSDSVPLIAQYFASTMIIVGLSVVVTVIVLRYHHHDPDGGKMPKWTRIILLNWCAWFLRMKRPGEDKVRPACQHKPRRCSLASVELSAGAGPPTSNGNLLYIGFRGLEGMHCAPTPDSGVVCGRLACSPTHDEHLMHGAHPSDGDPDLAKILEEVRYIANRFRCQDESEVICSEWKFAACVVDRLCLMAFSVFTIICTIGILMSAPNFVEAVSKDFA
Sequence of Neuronal acetylcholine receptor subunit alpha-9 (P43144 whole entry): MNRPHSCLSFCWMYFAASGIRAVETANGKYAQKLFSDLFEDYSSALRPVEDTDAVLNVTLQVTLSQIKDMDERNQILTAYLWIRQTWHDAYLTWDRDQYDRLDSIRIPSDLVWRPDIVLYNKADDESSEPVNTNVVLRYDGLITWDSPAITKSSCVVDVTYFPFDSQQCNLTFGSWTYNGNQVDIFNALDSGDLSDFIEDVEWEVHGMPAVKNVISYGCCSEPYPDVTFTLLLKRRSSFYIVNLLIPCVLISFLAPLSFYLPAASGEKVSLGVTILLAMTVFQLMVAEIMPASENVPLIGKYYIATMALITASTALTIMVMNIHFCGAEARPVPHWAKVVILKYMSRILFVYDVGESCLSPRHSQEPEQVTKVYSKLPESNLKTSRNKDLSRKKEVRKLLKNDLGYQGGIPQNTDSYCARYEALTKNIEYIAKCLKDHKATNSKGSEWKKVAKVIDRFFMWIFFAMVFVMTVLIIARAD
Sequence of Nicotinic acetylcholine receptor (Q62594 whole entry): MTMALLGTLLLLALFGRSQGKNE
Sequence of Neuronal acetylcholine receptor subunit alpha-4 (P09483 whole entry): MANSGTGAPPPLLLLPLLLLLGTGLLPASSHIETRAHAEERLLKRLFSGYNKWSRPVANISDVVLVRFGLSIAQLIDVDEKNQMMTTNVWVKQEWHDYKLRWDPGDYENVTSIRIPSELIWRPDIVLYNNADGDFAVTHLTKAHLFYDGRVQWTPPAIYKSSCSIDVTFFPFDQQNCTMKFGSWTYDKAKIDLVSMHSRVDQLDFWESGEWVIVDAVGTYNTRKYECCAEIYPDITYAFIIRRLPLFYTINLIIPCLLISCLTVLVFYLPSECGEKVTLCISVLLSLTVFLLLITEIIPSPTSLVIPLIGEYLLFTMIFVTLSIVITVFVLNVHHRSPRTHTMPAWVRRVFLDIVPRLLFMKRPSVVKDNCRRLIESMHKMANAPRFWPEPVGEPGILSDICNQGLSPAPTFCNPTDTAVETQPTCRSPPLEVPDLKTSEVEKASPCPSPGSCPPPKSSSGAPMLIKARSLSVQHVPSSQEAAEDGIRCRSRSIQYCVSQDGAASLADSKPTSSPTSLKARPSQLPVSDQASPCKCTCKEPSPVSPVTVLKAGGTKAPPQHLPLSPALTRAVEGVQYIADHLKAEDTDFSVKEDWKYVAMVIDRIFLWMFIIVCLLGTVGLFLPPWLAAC

For orientation: Ki means a measure of affinity in units of concentration, obtained from inhibition or displacement. High values mean lower affinity, low ones higher affinity. Consider `CN1[C@@H]2CC[C@H]1CC(OC(=O)[C@H](CO)c1ccccc1)C2` (stereo partly drawn) [CAS_51-55-8], for which, in test [1], the Ki is greater than 10000 nM.

In test [1], `CN1CCc2cccc3c2[C@H]1Cc1ccc(O)c(O)c1-3` [APOKYN] came in with a Ki greater than 10000 nM.

As for `CNC(=O)Oc1ccc2c(c1)[C@]1(C)CCN(C)C1N2C` (stereo partly drawn), the Ki in test [1] is greater than 10000 nM.

Regarding `COc1cc2c3cc1Oc1cc(ccc1O)CC1c4c(cc(OC)c(O)c4Oc4ccc(cc4)CC3[N+](C)(C)CC2)CC[N+]1(C)C` (stereo not drawn) [CAS_8063-06-7], the inhibition constant (Ki) in test [1] came to 730 nM.

On to `c1cncc(OC[C@@H]2CCN2)c1`, for which the Ki in test [2] turned out to be 0.01 nM; in test [3], 320 nM; in test [4] it was 17 nM.

Consider `Ic1ccc(C2CC3CCC2N3)cn1` (stereo not drawn) [IPH], for which the inhibitory constant (Ki) in test [5] worked out at 0.11 nM; in test [2], 0.02 nM; in test [3] it was 6.5 nM; in test [4], 30 nM.

Consider `O=C(CCCN1CCC(O)(c2ccc(Cl)cc2)CC1)c1ccc(F)cc1` [4-[4-(4-Chloro-phenyl)-4-hydroxy-piperidin-1-yl]-1-(4-fluoro-phenyl)-butan-1-one;propionate(HCl)], for which, in test [1], the inhibition constant Ki is greater than 10000 nM.

Take `O=c1cccc2n1C[C@H]1CNC[C@H]2C1` [(1S,9R)-7,11-diazatricyclo[7.3.1.0~2,7~]trideca-2,4-dien-6-one]: the Ki in test [5] turned out to be 54 nM; in test [2], 0.18 nM; in test [3] it was 190 nM; in test [4], 260 nM.

In turn, `C=CCN1CC[C@]23c4c5ccc(O)c4O[C@H]2C(=O)CC[C@@]3(O)[C@H]1C5` [[17-(2,3-3H-2-propenyl)]-4,5a-epoxy-3,14-dihydroxymorphinan-6-one] yielded a Ki in test [1] greater than 10000 nM.

As for `C=C(C=O)C[C@H]1C[C@H](O)[C@]2(C)O[C@@H]3C[C@@H]4O[C@@H]5C[C@]6(C)O[C@]7(C)CC[C@@H]8O[C@@H]9C[C@]%10(C)O[C@@H]%11C(C)=CC(=O)O[C@H]%11C[C@H]%10O[C@H]9C[C@@H](C)[C@H]8O[C@H]7C[C@H]6O[C@@]5(C)C/C=C\[C@H]4O[C@H]3C[C@H]2O1`, in test [1], affinity was put at a Ki of 2500 nM.
